The results in this text go back to ChEMBL document CHEMBL1144359, “Synthesis and antitumor activity of the hexacyclic camptothecin derivatives” (Bioorg Med Chem Lett, 2005).

pIC50: −log10 of the molar value.

Series [1] in a line: In-vitro inhibitory concentration for human tumor HCT116 cell-line was determined using MTT assay after 3 days of incubation. Type of series: functional, cell-based. Particulars: HCT-116, 72 h.
The nature of series [2]: In-vitro inhibitory concentration for human tumor HELA cell-line was determined using MTT assay after 3 days of incubation. Particulars: 72 h. Type of series: functional, cell-based.
Series [3] has as its system HL-60. As to the kind of experiment: In-vitro inhibitory concentration for human tumor HL60 cell-line was determined using […] assay after 3 days of incubation. Type of series: functional, cell-based. As to conditions: HL-60, 72 h.
The subject of series [4] is Bel-7402. As to the kind of experiment: In-vitro inhibitory concentration for human tumor BEL-7402 cell-line was determined using MTT assay after 3 days of incubation. Type of series: functional, cell-based. As to conditions: Bel-7402, 72 h.
A short description of series [5]: Lethal toxicity in mouse with tumor sarcoma-180 after intraperitoneal (i.p.) injection at a dose of 75 mg/Kg of total 10 tested. Particulars: in vivo, ip.
Series [6] has as its system Mus musculus. As to the kind of experiment: Average tumor weight in mouse with tumor sarcoma-180 after intraperitoneal (i.p.) injection at a dose of 75 mg/Kg. Type of series: functional.
In series [7] the test system is Mus musculus. As to the kind of experiment: Percent body weight change in mouse with tumor sarcoma-180 after intraperitoneal (i.p.) injection at a dose of 75 mg/Kg. Type of series: functional.
Series [8] relates to Mus musculus. In words: Percent tumor-weight inhibition in mouse with tumor sarcoma-180 after intraperitoneal (i.p.) injection at a dose of 75 mg/Kg. The format is functional.
A short description of series [9]: Lethal toxicity in mouse with tumor sarcoma-180 after intraperitoneal (i.p.) injection at a dose of 2.5 mg/Kg of total 8 tested. As to conditions: in vivo, ip.
Series [10] is described as follows: Lethal toxicity in mouse with tumor sarcoma-180 after intraperitoneal (i.p.) injection at a dose of 5.0 mg/Kg of total 8 tested. Particulars: in vivo, ip.
Series [11] has as its system Mus musculus. In words: Percent body weight change in mouse with tumor sarcoma-180 after intraperitoneal (i.p.) injection at a dose of 5 mg/Kg. The format is functional.
Series [12] relates to Mus musculus. As to the kind of experiment: Average tumor weight in mouse with tumor sarcoma-180 after intraperitoneal (i.p.) injection at a dose of 5 mg/Kg. Type of series: functional.
The test system of series [13] is Mus musculus. In words: Average tumor weight in mouse with tumor sarcoma-180 after intraperitoneal (i.p.) injection at a dose of 2.5 mg/Kg. Type of series: functional.
The subject of series [14] is Mus musculus. As to the kind of experiment: Percent tumor-weight inhibition in mouse with tumor sarcoma-180 after intraperitoneal (i.p.) injection at a dose of 5 mg/Kg. The format is functional.
The subject of series [15] is Mus musculus. In words: Percent tumor-weight inhibition in mouse with tumor sarcoma-180 after intraperitoneal (i.p.) injection at a dose of 2.5 mg/Kg. The format is functional.
Series [16] concerns Mus musculus. As to the kind of experiment: Percent body weight change in mouse with tumor sarcoma-180 after intraperitoneal (i.p.) injection at a dose of 2.5 mg/Kg. The format is functional.
Series [17] in a line: Lethal toxicity in mouse with tumor sarcoma-180 after intraperitoneal (i.p.) injection at a dose of 0.5 mg/Kg of total 8 tested. As to conditions: in vivo, ip.
Series [18] is described as follows: Lethal toxicity in mouse with tumor sarcoma-180 after intraperitoneal (i.p.) injection at a dose of 1.0 mg/Kg of total 8 tested. Particulars: in vivo, ip.
Series [19] has as its system Mus musculus. As to the kind of experiment: Percent body weight change in mouse with tumor sarcoma-180 after intraperitoneal (i.p.) injection at a dose of 1 mg/Kg. The format is functional.
The subject of series [20] is Mus musculus. In words: Average tumor weight in mouse with tumor sarcoma-180 after intraperitoneal (i.p.) injection at a dose of 1 mg/Kg. The format is functional.
Series [21] deals with Mus musculus. In words: Average tumor weight in mouse with tumor sarcoma-180 after intraperitoneal (i.p.) injection at a dose of 0.5 mg/Kg. Type of series: functional.
Series [22] deals with Mus musculus. In words: Percent body weight change in mouse with tumor sarcoma-180 after intraperitoneal (i.p.) injection at a dose of 0.5 mg/Kg. Type of series: functional.
The subject of series [23] is Mus musculus. In words: Percent tumor-weight inhibition in mouse with tumor sarcoma-180 after intraperitoneal (i.p.) injection at a dose of 1 mg/Kg. The format is functional.
Series [24] deals with Mus musculus. In words: Percent tumor-weight inhibition in mouse with tumor sarcoma-180 after intraperitoneal (i.p.) injection at a dose of 0.5 mg/Kg. The format is functional.
Series [25] is described as follows: Lethal toxicity in mouse with tumor sarcoma-180 after intraperitoneal (i.p.) injection at a dose of 40 mg/Kg of total 8 tested. As to conditions: in vivo, ip.
The test system of series [26] is Mus musculus. In words: Average tumor weight in mouse with tumor sarcoma-180 after intraperitoneal (i.p.) injection at a dose of 40 mg/Kg. The format is functional.
Series [27] concerns Mus musculus. In words: Percent body weight change in mouse with tumor sarcoma-180 after intraperitoneal (i.p.) injection at a dose of 40 mg/Kg. The format is functional.
The test system of series [28] is Mus musculus. In words: Percent tumor-weight inhibition in mouse with tumor sarcoma-180 after intraperitoneal (i.p.) injection at a dose of 40 mg/Kg. The format is functional.

For orientation: pIC50 means the IC50 on a negative log10 scale, so that one unit is a factor of ten. A high value points to a small IC50.

For `CCc1c2c(nc3ccc4c(c13)CC(COC(C)=O)O4)-c1cc3c(c(=O)n1C2)COC(=O)[C@]3(O)CC` (some centres not stated), the pIC50 in [1] is 9.28; in series [2] it was 7.85; in series [3] it was 8.04; in series [4] it was 7.96.
Take `CC[C@@]1(O)C(=O)OCc2c1cc1n(c2=O)Cc2cc3c4c(ccc3nc2-1)OC(C)C4` (some centres not stated): the pIC50 in series [1] was 8.31; in series [2], 8.00; in series [3] it was 8.51; in series [4] it was 8.13.
For `CCc1c2c(nc3ccc(O)cc13)-c1cc3c(c(=O)n1C2)COC(=O)[C@]3(O)CC` [7-ETHYL-10-HYDROXYCAMPTOTHECIN], the pIC50 is 8.48 in series [1], 7.66 in series [2], 7.72 in series [3] and 7.89 in series [4].
As for `O=c1[nH]cc(F)c(=O)[nH]1` [FLUOROURACIL], the “No. of mice dead” value in series [5] is on record as 0. Also, in series [6], the TW was 0.22. Besides, in [7], the BWC is reported as 31%. This molecule returned a TWI in series [8] of 86%.
As to `CC[C@@]1(O)C(=O)OCc2c1cc1n(c2=O)Cc2cc3c4c(ccc3nc2-1)OC(O)C4` (some centres not stated), the “No. of mice dead” value in series [9] and in series [10] was 0 throughout. Further, the pIC50 in [1] was 8.49; in [3] it was 8.08; in series [4], 8.59. Besides, the BWC in [11] was -31%; in [16], 5%. Also, the figures for the TW in series [12] and in series [13] were 0.05 and 0.45, respectively. Also, the TWI amounted to 97% in series [14] and 70% in series [15].
In the case of `CC[C@@]1(O)C(=O)OCc2c1cc1n(c2=O)Cc2cc3c4c(ccc3nc2-1)OC(COC(C)=O)C4` (some centres not stated), the pIC50 in series [1] was 8.37; in series [2], 7.96; in [3], 7.96; in series [4], 7.82.
Turning to `CCc1c2c(nc3ccc4c(c13)CC(CO)O4)-c1cc3c(c(=O)n1C2)COC(=O)[C@]3(O)CC` (some centres not stated), the negative logarithm of the IC50 (pIC50) in series [1] is 8.42; in series [2] it was 7.64; in [3], 8.15; in series [4], 8.11.
For `CC[C@@]1(O)C(=O)OCc2c1cc1n(c2=O)Cc2cc3c4c(ccc3nc2-1)OC(CO)C4` (some centres not stated), the pIC50 in series [1] is 8.59; in series [2] it was 7.60; in series [3], 8.06; in [4], 7.72.
As to `CCc1c2c(nc3ccc4c(c13)CC(O)O4)-c1cc3c(c(=O)n1C2)COC(=O)[C@]3(O)CC` (some centres not stated), the negative-log IC50 (pIC50) in [1] was 8.85; in [2], 7.70; in [3], 8.38; in series [4], 8.36.
Regarding `CCc1c2c(nc3ccc4c(c13)CC(C)O4)-c1cc3c(c(=O)n1C2)COC(=O)[C@]3(O)CC` (some centres not stated), the negative-log IC50 (pIC50) in [1] was 8.59; in [2], 7.72; in series [3], 8.31; in series [4], 8.12.
`CCc1c2c(nc3ccc4occc4c13)-c1cc3c(c(=O)n1C2)COC(=O)[C@]3(O)CC`: the pIC50 in series [1] was 8.77; in [2], 8.64; in [3], 9.55; in series [4], 8.59.
Regarding `CC[C@@]1(O)C(=O)OCc2c1cc1n(c2=O)Cc2cc3c(ccc4occc43)nc2-1`, the “No. of mice dead” value in [17] and in series [18] was 0 each time. The pIC50 in series [1] is 8.80; in [2], 7.82; in [3] it was 8.52; in [4], 8.80. Besides, the figures for the BWC in series [19] and in [22] were -34% and 26%, respectively. The TW was 0.03 in series [20] and 0.23 in [21]. In addition, the TWI in series [23] turned out to be 98%; in series [24] it was 85%.
Consider `CCc1c2c(nc3ccc(OC(=O)N4CCC(N5CCCCC5)CC4)cc13)-c1cc3c(c(=O)n1C2)COC(=O)[C@]3(O)CC` [IRINOTECAN], for which the “No. of mice dead” value in [25] is recorded as 0. In series [26], this molecule gave a TW of 0.01. Besides, in series [27], the BWC is -28%. In series [28], the TWI amounted to 99.4%.
